# Tests used:
# [1] = system: herpes simplex virus type 2 (HSV-2); test: In vitro HSV-2 bioassay: virucidal plaque assay (HEP-2 cells); type: cell-based, HSV-2 strain 333; conditions: for plaque count / titer: Table 3
# Experimental: Evidence of the efficacy of the virucides of the invention in vitro has been obtained from bioassay using HSV-2, using a standard assay procedure. Serial dilutions of the compounds were tested for their ability to prevent plaque formation by a stock virus suspension. Reduction of plaque titer by test compounds as compared to mock treated controls was indicative of virucidal activity. […] These represent the upper limit for the drug concentration, since dilutions were not carried beyond 1:6400 and in some cases 1:12800.
# Cell Culture. Cell cultures used for the propagation and titration of HSV-2 were the human diploid lung embryonic line MRC-5 and the human malignant epitheloid cell line HEP-2 respectively. Stock monolayer cultures of both cell lines were propagated in Dulbecco's Modified Eagle's medium (DME) supplemented with 10% (V/V) calf serum. Spinner cultures for mass production of HEP-2 cells were grown in Joklik's medium supplemented with 10% (V/V) calf serum and 1% (W/V) pluronic acid. Monolayer cultures of HEP-2 cells for plaque or virucidal assay were seeded into 60 mm dishes in DME supplemented with 10% calf serum and antibiotics. Stock cultures were maintained in antibiotic free medium.
# Herpes simplex virus, type 2 (HSV-2) strain 333 was obtained from Dr. John Hughes of the Dept. of Medical Microbiology, College of Medicine, The Ohio State University. Stocks of HSV-2 were prepared in the human diploid embryonic lung cell line, MRC-5. Confluent MRC-5 monolayer cultures in T-75 plastic flasks were washed one time with Hank's and Balanced Salt solution (HBSS) and infected with 0.5 ml of HSV-2, strain 333 stock. Virus was adsorbed for 1 hour at 37° C. Then the culture was refed with 15 ml of DME supplemented with 1% (V/V) calf serum. Virus was harvested 48 hours later when cytopathology was complete. Cultures were frozen and thawed rapidly three times to release cell associated virus, clarified by centrifugation at 10,000×g for 15 minutes at 4° C., aliquoted into 5 ml lots and frozen at -70° C. One lot was taken for virus titration.
# HSV-2 was titrated by plaque assay in HEP-2 cells under a semi-solid methyl cellulose overlay. Tenfold serial dilutions of virus were prepared in HBSS and 0.3 ml aliquots of each dilution inoculated onto triplicate HEP-2 cell monolayers in 60 mm plastic petri dishes. Adsorption of virus was for 1 hour at 37° C. Plates were then overlayed with 5 ml of a 1:1 mixture of 2×DME supplemented with 2% (V/V) calf serum and 3% (W/V) methyl cellulose to give a final 1×DME supplemented with 1% calf serum and 1.5% methylcellulose. Infected plates were incubated at 37° C. in a humidified 10% CO2 atmosphere for 48 hours. Virus plaques were visualized by staining with crystal violet and counted under a dissecting microscope. Virus titers were calculated from the plaque numbers by averaging the plaque count and multiplying by 3.3 (0.3 ml plates).
# The following procedure was employed to assay virucidal activity in various test samples. Compounds were received as a solution in DMSO and were serially diluted in HBSS as described for each experiment. For the test, 1 ml of each dilution was mixed with 1 ml of a stock virus suspension diluted to approximately 9×10^3 plaque forming units (P.F.U.)/ml. This test mixture was incubated at 25° C. for 30 minutes, then inoculated onto a cell culture (HEP-2) for plaque assay as described previously. Mock treated (virus plus HBSS) controls were included with each test. Any reduction of plaque titer by test compounds as compared to the mock treated control was indicative of virucidal activity.
# Samples from RP-HPLC fractionation of the CLOH, produced according to Example 2, as well as purified samples of palmitic, myristic and oleic acids and Vitamin D2, were tested for HSV-2 bioactivity. […] Pure oleic acid was not active in this assay, nor were palmitic and myristic acids and Vitamin D2. […]
# [2] = Guinea pig toxicity controls (sham-infected, topical treatment); type: in vivo, guinea pigs; conditions: for Toxicity Controls Max. Irrit. Score: 0 to 4 scale
# Experimental: Drugs. The substances tested consisted of four bottles labelled "A", "B", "C", and "D" with no identifying key. The samples were: A, 0.1 mg/ml DHA (0.003 mmol/ml); B, 5% w/w ACV (0.22 mmol/ml); C, 1 mg/ml DHA (0.03 mmol/ml); and D, 10 mg/ml DHA ([…]). […] All were treated as light-sensitive compounds.
# Experimental Protocol. The guinea pigs were infected by applying a virus-soaked swab intravaginally, with agitation, for 20 seconds. Toxicity control animals were similar pretreated using swabs soaked in sterile Puck's balanced salt solution. Treatment began 20 hr later, with the compound or placebo applied topically intravaginally, perivaginally, and perianally using cotton swabs soaked in the respective substance. Treatment continued three times daily (8 a.m., noon, 4 p.m.) for 7 days. Ten infected animals were used for each coded substance, with twenty used for virus controls. Five sham-infected animals were concomitantly treated with each coded substance to serve as toxicity controls. Two guinea pigs were held separately to serve as normal untreated controls.
# Each animal was observed daily for survival for a total of 28 days. On days 5 through 8 post-virus inoculation, the genital area was carefully examined and signs of irritation in the toxicity controls and lesion severity in injected animals was scored on a 0 to 4 scale using the same scale as in the mouse bioassay. The results were scored as average daily lesion (ADL) scores for each group, and as mean vaginal lesion (MVL) scores, calculated as the mean of the ADL scores for days 5-8. The maximum mean score for the toxicity control animals was also determined.
# [3] = Visually observed solubility in DMSO-HBSS; type: physicochemical; conditions: 1 mg in 1 ml of 70% DMSO-30% HBSS
# Experimental: Vehicles. […] The DMSO-HBSS vehicle was selected based on the observed (visually) solubility of DHA in various DMSO-HBSS solutions. 1 mg DHA was soluble in 1 ml of 70% DMSO-30% HBSS.
compound,measurement,setting,value
"CCC=CCC=CCC=CCC=CCC=CCC=CCCC(=O)O [DHA, 4,7,10,13,16,19 Docosahexaenoic Acid]",MIC,"[1]; Human alphaherpesvirus 2, 0.5 h, Table 4 run, 30 min at 25° C., upper limit, dilutions to 1:12800, read-out: MIC (lowest concentration producing a 3-log reduction in virus titer)",0.47 µg/mL
same,plaque count,[1]; dilution 1:10,0
same,titer,"[1]; dilution 1:10, control titer 4.5 × 10^3",0
same,plaque count,[1]; dilution 1:100,0
same,titer,[1]; dilution 1:100,0
same,titer,[1]; dilution 1:400,0
same,plaque count,"[1]; dilution 1:400, TNTC = too numerous to count",0
same,titer,[1]; dilution 1:800,0
same,plaque count,"[1]; dilution 1:800, TNTC = too numerous to count",0
same,titer,[1]; dilution 1:1600,0
same,plaque count,"[1]; dilution 1:1600, TNTC = too numerous to count",0
same,titer,[1]; dilution 1:3200,0
same,plaque count,"[1]; dilution 1:3200, TNTC = too numerous to count",0
same,titer,[1]; dilution 1:6400,0
same,plaque count,"[1]; dilution 1:6400, TNTC = too numerous to count",0
same,titer,[1]; dilution 1:12800,0
same,plaque count,"[1]; dilution 1:12800, TNTC = too numerous to count",0
same,virucidal activity against HSV-2 in words,[1]; in vitro bioassay,potent and fast-acting virucides
same,Toxicity Controls Surv/Total,[2]; A: 0.1 mg/ml DHA in PEG-1000,5/5
same,Toxicity Controls Max. Irrit. Score,[2]; A: 0.1 mg/ml DHA in PEG-1000,0.0
same,Toxicity Controls Surv/Total,[2]; C: 1 mg/ml DHA in PEG-1000,5/5
same,Toxicity Controls Max. Irrit. Score,[2]; C: 1 mg/ml DHA in PEG-1000,0.0
same,Toxicity Controls Surv/Total,[2]; D: 10 mg/ml DHA in PEG-1000,5/5
same,Toxicity Controls Max. Irrit. Score,[2]; D: 10 mg/ml DHA in PEG-1000,0.0
same,solubility,[3],soluble
